From patent publication US20220183287A1, “METHODS FOR KILLING PESTS” (The United States of America, as represented by the …, priority 2020, published 2022)
“And” between values parts separate entries of the source, which are not always exact repeats. Identical values can stand only once. Marks after values point to notes of the source that are not given here.

Key:
Heterodera glycines eggs = assay: Microwell assay: eggs immersed in compounds, hatch and activity of hatched J2; format: in vivo; settings: 0.1%; for % Active Day 2 / % Active Day 5 / % Active Day 7: J2 hatched from immersed eggs; for Hatch Day 2 / Hatch Day 5 / Hatch Day 7: hatched J2 per well, about 35 eggs per well
Experimental: (§1) All chemicals were used without further purification.
(§2) These are reported as 0.1% herein.
(§3) The nematodes were then incubated at 26° C. […] Two trials were conducted for each assay.
(§4) The assumptions of the model were checked.

M. incognita eggs = assay: as above; format: in vivo, Meloidogyne incognita; settings: 0.1%; for % Active Day 2 / % Active Day 5 / % Active Day 7: J2 hatched from immersed eggs; for Hatch Day 2 / Hatch Day 5 / Hatch Day 7: hatched J2 per well, about 35 eggs per well
Experimental: as §1, §2, §3, §4

[1] = tested on: M. incognita second-stage juveniles; assay: Microwell assay: previously hatched J2 immersed in compounds, activity and viability; settings: for % Active Day 1 / % Active Day 2: 0.1%, previously hatched J2 in aqueous solution; for viability at 0.1 % / mortality at 0.1 %: Meloidogyne incognita, 72 h; for viability at 0.1 %: read-out: % Viable Day 3 rinsed; for mortality at 0.1 %: read-out: nonviable (killed) J2
Experimental: Nematode cultures: As described in Meyer et al. (Meyer, S. L. F., et al., Nematropica, 46: 85-96 (2016)), M. incognita race 1 (originally isolated in Maryland) was maintained in a greenhouse (24° to 29° C.; natural and supplemental lighting combined for a 16-h daylength) on susceptible cayenne pepper (Capsicum annuum) TA-136′ plants. All greenhouse experiments described herein were conducted under the same conditions. Two to three months after pepper plant inoculation, egg masses were picked from roots. Eggs were separated by 5 min immersion in 0.6% sodium hypochlorite, followed by a rinse in sterile distilled water (SDW). To collect second-stage juveniles (J2) for microwell assays, the surface-sterilized eggs were placed in a hatching chamber (Spectra/Mesh Nylon Filter, openings 25-μm-diam.; Spectrum Laboratories Inc., Rancho Dominguez, Calif.) set in an autoclaved dish that was placed on a rotary shaker for 3 days at 35 rpm. For some M. incognita and H. glycines assays, 25 or […] kanamycin monosulfate (Phytotechnology Laboratories, Shawnee Mission, Kans.) was added to the hatching chamber to prevent growth of bacteria. The collected J2 were then rinsed with water to remove the kanamycin monosulfate.
(§5) Compounds for the studies were purchased from three different companies: methyl benzoate, CAS Number 93-58-3, ≥99% purity; Tween 20, CAS Number: 9005-64-5; Tween 80, CAS Number: 9005-65-6; ethyl benzoate, CAS Number: 93-89-0, natural, ≥99% purity, FCC, FG; vinyl benzoate, CAS Number: 769-78-8, ≥99% purity; n-propyl benzoate, CAS Number: 2315-68-6, 99% purity; n-butyl benzoate, CAS Number: 136-60-7, 99% purity; benzyl benzoate, CAS Number: 120-51-4, natural, ≥99% purity, FCC, FG; methyl 2-methylbenzoate, CAS Number: 89-71-4, 99% purity; methyl 2-chlorobenzoate, CAS Number: 610-96-8, ≥98% purity; methyl 2-methoxybenzoate, CAS Number: 606-45-1, 99% purity and methyl 2-nitrobenzoate, CAS Number: 606-27-9, 98% purity were purchased from Sigma-Aldrich (St. Louis, Mo.). Compounds, iso-butyl benzoate, CAS Number 120-50-3, >98% purity; n-pentyl benzoate, CAS Number: 2049-96-9, ≥98% purity; and n-hexyl benzoate, CAS Number: 6789-88-4, ≥98% purity were purchased from Alfa Aesar (Tewksbury, Mass.). The compounds methyl 3-methoxybenzoate (methyl m-anisate), CAS Number: 5368-81-0; 97% and methyl 3-methylbenzoate (methyl m-toluate), CAS Number: 99-36-5, 97% purity were purchased from TCI America (Portland, Oreg.). All chemicals were used without further purification. Deionized water (DI) containing 1% emulsifier (v/v), Tween 20 and Tween 80, at 1:1 ratio was used to make different VOCs (volatile organic compounds) water solutions and also used as blank control.
(§6) For tests with individual compounds, the concentration of each compound was 0.1% before placement into wells; the final concentration in the wells was 0.095% after addition to eggs or J2 suspended in water. These are reported as 0.1% herein. An exception was Trial 2, M. incognita J2 activity and viability (Table 2): the final concentration was 0.1% after placement in wells. Low concentrations were selected for assays of combined compounds to determine if the combinations would increase nematotoxicity.
(§7) Laboratory assays were conducted in 96-well polystyrene plates following general procedures described in Wen et al. (2019). Each well received approximately 35 J2 (for previously hatched J2 assays) or 35 eggs that each contained either a first-stage juvenile (J1) or a J2. The plates were covered with plastic adhesive sealing film (Excel Scientific, Inc., Victorville Calif.) and then with the plate lids. Parafilm (Bemis, Neenah, Wis.) was used to seal the plates. The nematodes were then incubated at 26° C. […] Following the counts on Day 2, the treatments were removed and the J2 rinsed twice with SDW and incubated in the second rinse. […] Two trials were conducted for each assay.

[2] = tested on: H. glycines second-stage juveniles; assay: as above; settings: for % Active Day 1 / % Active Day 2: previously hatched J2 in aqueous solution; for viability at 0.1 %: Heterodera glycines, 72 h, read-out: % Viable Day 3 rinsed
Experimental: The isolate of H. glycines race 3, originally isolated in Maryland, was maintained on soybean (Glycine max cv. ‘Essex’). As previously described (Wen, Y., et al. Plant Disease, 103: 2191-2198 (2019)), the roots were gently rubbed in water to dislodge cysts and mature females. The egg suspensions were then poured through nested sieves (#20 over /#60; pore sizes 850 μm and 250 μm diam., respectively) into a 454 g/liter sucrose solution. After 15 min, the cysts and females and cysts that floated to the top were collected, rinsed in water, and crushed with a rubber stopper on a #60 sieve (250-μm diam. pore size) that was partially submerged in distilled water. The egg suspension was washed through nested #230 over #500 sieves (pore sizes 63 μm and 25-μm diam., respectively). The eggs were collected in distilled water, and J2 hatched as described above.
as §5, §6, §7
Statistical analyses: The data were analyzed as either a general linear model using JMP or a generalized linear model for the best distribution to fit the residual using Proc Glimmix (Sas Institute). The assumptions of the model were checked. If not met, then appropriate statistical techniques were used so that data could met the assumptions of the models. In Sas, mean comparisons were done with Sidak adjusted p-values to hold the experiment-wise error at 0.05.

SMILES	% Active Day 2 (Heterodera glycines eggs)	% Active Day 5 (Heterodera glycines eggs)	% Active Day 7 (Heterodera glycines eggs)	Hatch Day 2 (Heterodera glycines eggs)	Hatch Day 5 (Heterodera glycines eggs)	Hatch Day 7 (Heterodera glycines eggs)	% Active Day 2 (M. incognita eggs)	% Active Day 5 (M. incognita eggs)	% Active Day 7 (M. incognita eggs)	Hatch Day 2 (M. incognita eggs)	Hatch Day 5 (M. incognita eggs)	Hatch Day 7 (M. incognita eggs)	% Active Day 1 [1]	% Active Day 2 [1]	viability at 0.1 % [1] [%]	mortality at 0.1 % [1] [%]	% Active Day 1 ([2]; 0.1%)	% Active Day 2 ([2]; 0.1%)	viability at 0.1 % [2] [%]	further results
COC(=O)c1ccccc1[N+](=O)[O-] [M2NB, Methyl 2-nitrobenzoate]	35.8 ^c %	28.6 ^bcd %	25.3 ^bc %	9.1 ^abc	10.2 ^bc	10.0 ^bc	29.5 ^b %	15.2 ^d %	18.7 ^b %	5.0 ^bcd	12.1 ^b	19.5 ^b	0 ^f %	0 ^d %	0	100	54.2 ^c %	34.1 ^de %	30	% active J2 suppression compared with the Tween control (Heterodera glycines eggs; Day 7): 53%; decrease in total hatch compared with the Tween control (M. incognita eggs; Day 7): about 58%; reduction in % viable J2 compared with the Tween control ([2]; 0.1%, Day 3 following water rinse): 51%
CCCOC(=O)c1ccccc1 [nPrB, n-Propyl benzoate]	2.2 ^d %	0 ^f %	0 ^d %	5.8 ^cd	5.8 ^cd	5.6 ^cd	0 ^c %	0 ^e %	0 ^c %	3.5 ^cd	4.0 ^cde	4.1 ^de	0 ^f %	0 ^d %	0	100	17.2 ^d %	10.8 ^fg %	12.1	hatch suppression compared to the Tween control (Heterodera glycines eggs; Day 2): 60%; inactive J2 that hatched from the eggs (Heterodera glycines eggs; by Day 7): 100%; pest or weed control at 0.1 % (Heterodera glycines eggs; Heterodera glycines, 168 h, Day 7, read-out: egg hatch suppression compared with the Tween control): 64 to 80%
COC(=O)c1ccccc1C [M2MB, Methyl 2-methylbenzoate]	23.8 ^cd %	24.3 ^cde %	30.9 ^ab %	6.6 ^bcd	7.6 ^bcd	7.4 ^bcd	45.3 ^ab %	11.8 ^d %	17.4 ^b %	4.3 ^cd	6.6 ^bcd	7.6 ^cd	2.5 ^e %	0 ^d %	0	100	50.4 ^c %	52.7 ^bc %	46.4	
CCCCCOC(=O)c1ccccc1 [nPeB, n-Pentyl benzoate]	4.2 ^d %	4.3 ^e %	4.2 ^c %	7.6 ^bcd	7.7 ^bcd	7.5 ^bcd	31.5 ^b %	0 ^e %	0% and 0 ^c %	4.9 ^bcd		6.6 ^cde	29.9 ^bc %	22.9 ^b %	16.5		54.0 ^c %	29.1 ^de %	28.4	nonviable (killed) J2 ([1]; in vivo): killed most of the J2
